# Values of other authors in patent US20150306111A1 (priority 2012, published 2015).
# Entries after “also recorded” stand apart in the source; their conditions may differ. Like-named read-outs stand apart in the source and are kept apart here.
# Columns and labels:
# [1] = tested on: asthma patients with seasonal allergic rhinitis and nasal congestion; conditions: daily dose of 5 mg, 331 patients
smiles,measurement,setting,value
Clc1ccc2c(c1)CCc1cccnc1C2=C1CCNCC1 [desloratadine],Solubility in ethyl alcohol,ethyl alcohol,very soluble in ethyl alcohol
same,Solubility in propylene glycol,propylene glycol,moderately soluble in propylene glycol
same,Solubility in water,,practically insoluble in water; also recorded: low solubility in water
same,Solubility in water,listed as Desloratadine,poorly soluble in water
same,Effect on symptoms compared with placebo,[1],"effective in reducing overall symptoms, the symptoms of asthma and the symptoms of nasal congestion"
